US7399869B2, “Fibroblast activation protein inhibitor compounds and methods” (Genentech, Inc., priority 2005, dated 2008)
Residues, ends and D or L forms follow the SMILES beside them. *: point of attachment. CH2Cl = ClC*

Tests used:
[1] = molecular target: T1, FAP (Homo sapiens, UniProt Q12884); assay: Relative cleavage rates of coumarin (AMCC) dipeptide substrates by FAP; format: biochemical; design: FAP (amino acids 38-760); FLAG (N); made in house; host or cells: 293 cells (secreted, purified from serum-free conditioned media); details: P2-Pro-AMCC substrates; hydrolysis rates normalized to Gly-Pro-AMCC
T1 sequence (Q12884 38-760): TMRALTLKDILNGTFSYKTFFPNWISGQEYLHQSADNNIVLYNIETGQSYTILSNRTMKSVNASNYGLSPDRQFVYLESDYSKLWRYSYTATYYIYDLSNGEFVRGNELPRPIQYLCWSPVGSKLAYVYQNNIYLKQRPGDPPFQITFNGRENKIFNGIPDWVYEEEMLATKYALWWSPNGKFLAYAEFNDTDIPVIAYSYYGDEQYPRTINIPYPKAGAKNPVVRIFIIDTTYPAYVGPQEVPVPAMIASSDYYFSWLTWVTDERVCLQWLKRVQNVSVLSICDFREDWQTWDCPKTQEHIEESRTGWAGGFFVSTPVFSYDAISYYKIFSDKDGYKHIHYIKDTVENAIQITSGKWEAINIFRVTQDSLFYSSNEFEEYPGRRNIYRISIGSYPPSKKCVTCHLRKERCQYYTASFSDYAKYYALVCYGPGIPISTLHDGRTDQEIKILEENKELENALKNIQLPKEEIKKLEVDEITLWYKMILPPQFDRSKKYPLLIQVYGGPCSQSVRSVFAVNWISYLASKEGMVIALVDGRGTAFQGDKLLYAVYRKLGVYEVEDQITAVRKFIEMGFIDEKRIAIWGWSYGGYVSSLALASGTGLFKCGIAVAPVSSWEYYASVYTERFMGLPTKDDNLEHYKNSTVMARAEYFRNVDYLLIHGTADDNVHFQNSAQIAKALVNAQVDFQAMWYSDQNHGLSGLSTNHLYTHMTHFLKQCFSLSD
Method: (§1) The relative cleavage rates of a variety of N-blocked, C-terminal coumarin (AMCC) Gly-Pro dipeptide substrates 6 were measured. The rates were normalized to N-unblocked Gly-Pro-AMCC for FAP and DPP-4.
(§2) To examine whether FAP could cleave other N-substituted-Gly-Pro-based substrates, N-methyl-, formyl-, succinyl-, benzyloxycarbonyl-(Z-) and biotinyl-Gly-Pro-AMCC substrates 6 were synthesized and reacted with FAP (37 nM) and DPP-4 (6.8 nM).
(§3) Amino-terminus P2 was varied with the L-amino acids: alanine, aspartic acid, glutamic acid, phenylalanine, glycine, histidine, isoleucine, lysine, leucine, methionine, asparagine, proline, glutamine, arginine, serine, threonine, valine, tryptophan, and tyrosine (from left). AMCC=2-(7-amino-4-methyl-2-oxo-2H-chromen-3-yl)acetamide. For both enzymes, the amino acid adjacent in the model dipeptide substrate had little effect where the amino-terminus was unblocked. Hydrolysis rates of other P2-Pro-AMCC substrates by FAP and DPP-4 relative to Gly-Pro-AMCC include the following in Table 6:
(§4) Protease Assays—Protease activity was monitored continuously using a SpectraMax M2 microplate reader (Molecular Devices Corp., Sunnyvale Calif.) in the kinetic mode. Assays were conducted at 23° C. in 50 mM Tris (pH 7.4), 100 mM NaCl, 1 mM EDTA. The excitation/emission wavelengths for the different fluorogenic substrates were 360/460 nm (AMC), 400/505 nm (AFC), 340/425 nm (MNA), 340/510 nm (EDANS), and 337/425 nm (Abs). Standard curves of the appropriate fluorescent product versus concentration were used to convert relative fluorescence units to nmol of product produced. Substrates in the X-Pro-AMC library were used in rate assays at 5 μM final concentration. […] The kinetic parameters were calculated from Michaelis-Menten plots (V0 versus [S]) with nonlinear regression analysis using GraphPad software. kcat values were calculated under the assumption that each protease was 100% active.

[2] = molecular target: T1, FAP; assay: Inhibition of FAP activity against Ala-Pro-AFC by P2-Pro-AMCC compounds; format: biochemical; design: FAP (amino acids 38-760); FLAG (N); made in house; host or cells: 293 cells (secreted, purified from serum-free conditioned media)
Method: (§5) Inhibition of FAP and DPP-4 activity against Ala-Pro-AFC by P2-Pro-AMCC compounds was measured at various concentration of the P2-Pro-AMCC compounds in Table 7.

[3] = molecular target: T2, DPP-4 (Homo sapiens, UniProt P27487); assay: Relative cleavage rates of coumarin (AMCC) dipeptide substrates by DPP-4; format: biochemical; design: DPP-4 (amino acids 39-766); FLAG (N); made in house; host or cells: 293 cells (secreted, purified from serum-free conditioned media); details: P2-Pro-AMCC substrates; hydrolysis rates normalized to Gly-Pro-AMCC
T2 sequence (P27487 39-766): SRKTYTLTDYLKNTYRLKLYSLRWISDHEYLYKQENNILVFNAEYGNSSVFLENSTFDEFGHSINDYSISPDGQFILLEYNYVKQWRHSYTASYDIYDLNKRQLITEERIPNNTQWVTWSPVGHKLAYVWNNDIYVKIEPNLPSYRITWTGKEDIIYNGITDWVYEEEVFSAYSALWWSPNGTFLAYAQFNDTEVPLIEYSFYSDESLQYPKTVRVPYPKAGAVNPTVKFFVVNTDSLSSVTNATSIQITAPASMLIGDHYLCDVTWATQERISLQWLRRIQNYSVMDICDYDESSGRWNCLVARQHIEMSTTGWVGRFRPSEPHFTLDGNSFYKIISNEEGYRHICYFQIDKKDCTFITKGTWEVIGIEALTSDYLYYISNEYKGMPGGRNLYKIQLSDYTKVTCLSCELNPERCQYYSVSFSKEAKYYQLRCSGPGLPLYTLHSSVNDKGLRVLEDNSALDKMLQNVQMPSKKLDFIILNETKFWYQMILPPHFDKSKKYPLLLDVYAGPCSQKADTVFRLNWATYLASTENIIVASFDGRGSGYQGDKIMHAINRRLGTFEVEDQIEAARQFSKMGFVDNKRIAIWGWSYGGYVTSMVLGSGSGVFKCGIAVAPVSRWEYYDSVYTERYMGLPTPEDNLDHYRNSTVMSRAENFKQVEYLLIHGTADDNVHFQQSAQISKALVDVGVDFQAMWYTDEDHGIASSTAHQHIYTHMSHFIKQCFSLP
Method: as §1, §2, §3, §4

[4] = molecular target: T2, DPP-4; assay: Inhibition of DPP-4 activity against Ala-Pro-AFC by P2-Pro-AMCC compounds; format: biochemical; design: DPP-4 (amino acids 39-766); FLAG (N); made in house; host or cells: 293 cells (secreted, purified from serum-free conditioned media)
Method: as §5

[5] = molecular target: T1, FAP; assay: Inhibition of recombinant FAP by cmk-based irreversible inhibitors; format: biochemical; design: FAP (amino acids 38-760); FLAG (N); made in house; host or cells: 293 cells (secreted, purified from serum-free conditioned media); details: for inhibitor concentration-dependent inhibition of FAP: 10, 100, and 500 μM inhibitor, residual activity against L-Ala-Pro-AFC; for time course of FAP activity in the presence of inhibitor: substrate L-Ala-Pro-AFC
Method: (§6) The cleavage activities of FAP and DPP-4 in the presence of an irreversible dipeptide inhibitor was measured (FIGS. 9-12). In each time course study (FIGS. 9-15), the protease (FAP, DPP) and the inhibitor compound were incubated together for 4 hours, then residual activity was assayed against substrate.
(§7) The cleavage activities of FAP and DPP-4 in the presence of a tetrapeptide irreversible inhibitor was measured.
(§8) Acetyl-gly-pro-chloromethyl ketone and acetyl-thre-ser-gly-pro-cmk were custom synthesized at Anaspec (San Jose, Calif.). Recombinant FAP (160 nM) and DPP-4 (160 nM) were reacted with Ac-GP-cmk or TSGP-cmk (0-500 μM) at 37° C. in 50 mM Tris-HCl, pH 7.5 containing 100 mM NaCl, and 0.1 mg/ml bovine serum albumin (assay buffer). After 6 hours, residual protease activity against AP-AFC (50 μM) was measured using a Molecular Devices M2 plate reader in the kinetic mode (excitation 400 nm, emission 505 nm). Inhibition data are graphed as residual activity relative to protease activity in the absence of inhibitor.
(§9) Inhibition of FAP and DPP-4 by the cmk-based inhibitors was studied under pseudo-first order conditions. Proteases (100 nM) were reacted with 10 μM inhibitor in assay buffer at 37° C. for increasing amounts of time. Residual protease activity was then measured using AP-AFC (50 μM) as a substrate. Pseudo-first order rate constants were calculated from the slope of plots of Ln (residual protease activity) versus time. Apparent association constants (kass) for inhibition were determined from the relationship kass=kobs/[I], where kobs is the pseudo-first order rate constant and [I] is the inhibitor concentration.

[6] = molecular target: T2, DPP-4; assay: Inhibition of recombinant DPP-4 by cmk-based irreversible inhibitors; format: biochemical; design: DPP-4 (amino acids 39-766); FLAG (N); made in house; host or cells: 293 cells (secreted, purified from serum-free conditioned media); details: for inhibition of DPP-4: 10, 100, and 500 μM inhibitor, residual activity against L-Ala-Pro-AFC; for time course of DPP-4 activity in the presence of inhibitor: substrate L-Ala-Pro-AFC
Method: as §6, §7, §8, §9

[7] = molecular target: T1, FAP; assay: Inhibition of FAP by N-blocked boroPro compounds (progress curves); format: biochemical; design: FAP (amino acids 38-760); FLAG (N); made in house; host or cells: 293 cells (secreted, purified from serum-free conditioned media); details: cleavage of substrate L-Ala-Pro-AFC
Method: (§10) The steady states of product formation in the absence (V0) and presence of inhibitor (Vi) were used to calculate apparent inhibition constants (Kiapp) by plotting V0/Vi−1 against inhibitor concentration.
(§11) Briefly, proteases were added to a reaction mixture containing inhibitor and substrate (Ac-Ala-AMC for APH, Z-Gly-Pro-AMC for POP, and Ala-Pro-AFC for all others) in assay buffer at 23° C. Protease activity was followed continuously as described above to monitor time-dependent inhibition. Data were plotted as V0/Vi−1 versus [I], where V0 is the rate if substrate hydrolysis in the absence of inhibitor, Vi is the steady state rate of substrate hydrolysis in the presence of inhibitor and [I] is the concentration of Ac-Gly-BoroPro.
(§12) KI values for inhibition of proteases by 5 were determined using the method of progress curves. Briefly, proteases (10-100 nM) were added to a reaction mixture containing inhibitor 5 (0-10 μM) and substrate AP-AFC in assay buffer at 23° C. […] Data were plotted as V0/Vi−1 versus [I], where V0 is the rate if substrate hydrolysis in the absence of inhibitor, Vi is the steady state rate of substrate hydrolysis in the presence of inhibitor and [I] is the concentration of 5. […] Ki, the true equilibrium inhibition constant was determined according to the following relationship: Ki=Kobs/(1+[S]/Km), where [S] is the concentration of substrate used in the assay and Km is the Michaelis constant for substrate cleavage.

[8] = molecular target: T2, DPP-4; assay: Inhibition of DPP-4 by N-blocked boroPro compounds (progress curves); format: biochemical; design: DPP-4 (amino acids 39-766); FLAG (N); made in house; host or cells: 293 cells (secreted, purified from serum-free conditioned media); details: for FAP/DPP-4 Selectivity: DPP-4 Ki relative to FAP Ki; for Ki: cleavage of substrate L-Ala-Pro-AFC
Method: as §10, §11, §12

[9] = test system: syngeneic tumors derived from fibrosarcoma, lymphoma, melanoma, and mastocytoma cell lines; details: oral administration to mice; cited from earlier work
[10] = test system: tumor cells; details: cited from earlier work
[11] = molecular target: T1, FAP; details: FIG. 13
[12] = molecular target: T2, DPP-4; details: FIG. 13

Compound	Relative Hydrolysis rate by FAP [1]	Ki [2] [µM]	Relative Hydrolysis rate by DPP-4 [3]	Ki [4] [µM]	Ki [7] [µM]	FAP/DPP-4 Selectivity [8]	Ki [8] [µM]	other results
CC(=O)NCC(=O)N1CCC[C@H]1C(=O)CCl [Ac-Gly-Pro-cmk, Acetyl-gly-pro-chloromethyl ketone] (Ac-Gly-Pro-CH2Cl)								inhibitor concentration-dependent inhibition of FAP [5]: almost complete; time course of FAP activity in the presence of inhibitor [5]: time-dependent; inhibition of DPP-4 [6]: not inhibited; time course of DPP-4 activity in the presence of inhibitor [6]: not time-dependent inhibited
Cc1cccc(C)c1C(=O)NCC(=O)N1CCCC1B(O)O (stereo not drawn) [N-(2,6-dimethylbenzoyl)-Gly-boroPro]					0.025	44	1.1	
O=C(CNCc1ccccc1)N1CCCC1B(O)O (stereo not drawn) [N-benzyl-Gly-boroPro]					0.048	1.2	0.056	
CC(C)[C@H](N)C(=O)N1CCC[C@H]1B(O)O [PT-100, Val-boro-Pro]								growth of syngeneic tumors [9]: slowed growth; direct cytotoxic effect on tumor cells [10]: no direct cytotoxic effect
CC(=O)NC(C(=O)NC(CO)C(=O)NCC(=O)N1CCCC1C(=O)CCl)C(C)O (stereo not drawn) [TSGP-cmk, acetyl-thre-ser-gly-pro-cmk] (Ac-TSGP-CH2Cl; configuration not given here)								inhibitor concentration-dependent inhibition of FAP [5]: almost complete; time course of FAP activity in the presence of inhibitor [5]: time-dependent; inhibition of DPP-4 [6]: not substantially inhibited; time course of DPP-4 activity in the presence of inhibitor [6]: not time-dependent inhibited
cyclohexylglycine-2-cyano-proline [CHCP]								effect of inhibitor concentration on cleavage of AP-AFC by FAP [11]: not inhibitor concentration dependent cleavage by FAP; effect of inhibitor concentration on cleavage of AP-AFC by DPP-4 [12]: inhibitor concentration dependent cleavage by DPP-4

The next lines start with results.

Relative Hydrolysis rate by FAP [1]	Ki [2] [µM]	Relative Hydrolysis rate by DPP-4 [3]	Ki [4] [µM]	Ki [7] [µM]	FAP/DPP-4 Selectivity [8]	Ki [8] [µM]	Compound	other results
3	1	1	> 2				CC(=O)NC(C)C(=O)N1CCCC1C(=O)Nc1ccc2c(C)c(CC(N)=O)c(=O)oc2c1 [Ac-(D-Ala)]	
3	0.2	0	> 2				CC(=O)NC(CO)C(=O)N1CCCC1C(=O)Nc1ccc2c(C)c(CC(N)=O)c(=O)oc2c1 [Ac-(D-Ser)]	
				16.5	>3	> 40	CC(=O)NC(CO)C(=O)NCC(=O)N1CCCC1B(O)O (stereo not drawn) [N-Ac-Ser-Gly-boroPro]	
2	0.34	1	2				NCCC(=O)O [β-Ala]	
